The values that follow come from patent US6090825A, “Oxazole derivatives as antagonists of alpha 1C andrenergic receptors” (Glaxo Wellcome Inc., priority 1994, dated 2000).

One series has as its system urethral pressure. Briefly: Canine urethral-prostate pressure: inhibition of hypogastric nerve stimulation response in anesthetized dog. Type of series: in vivo, male mongrel dogs. On the procedure:
(§1) A. CANINE URETHRAL-PROSTATE PRESSURE
(§2) To evaluate the ability of compounds to affect urethral-prostate pressure (contractility) while assessing their cardiovascular effects simultaneously.
Using hypogastric nerve stimulation (NS) and the .varies.-1 agonist phenylephrine (or other receptor agonists, as appropriate) the responses of urethral pressures and systemic blood pressure are recorded. The tests compounds are then given in a log dose infusion. The inhibition of the NS response within the prostate as well as the systemic phenylephrine response on blood pressure is measured to assess the uro-selectivity of the compound in the anesthetized dog. […]
(§3) 4. Rectal temperature is monitored and maintained at 37-39° C. with a heating pad. […]
3. […] The effects of either nerve stimulation (NS) or IV phenylephrine can be evaluated.
(§4) 1. After a control period of at least 30 minutes and establishment of stable baselines of urethral and blood pressure are observed, the control responses to NS or phenylephrine bolus are recorded.
2. A hypogastric nerve stimulation of 16 Hertz, 10 Volts, 10 msec pulse width and 10 sec train duration are given and changes in urethral pressures are recorded.
3. At a time point 5 minutes post NS a phenylephrine bolus (10 μg/kg) is given into the cephalic vein and changes in blood pressure are recorded. […]

For another series, the system named is diastolic blood pressure. Briefly: Canine model: inhibition of phenylephrine response on diastolic blood pressure in anesthetized dog. It is filed as in vivo, male mongrel dogs. As to conditions: Canis lupus familiaris, iv, dose (salt) producing 50% inhibition of agonist (phenylephrine) response on diastolic blood pressure, cumulative i.v. infusion, read-out: BP ED50. The protocol:
as §1, §2
Using hypogastric nerve stimulation (NS) and the .varies.-1 agonist phenylephrine (or other receptor agonists, as appropriate) the responses of urethral pressures and systemic blood pressure are recorded. The tests compounds are then given in a log dose infusion. The inhibition of the NS response within the prostate as well as the systemic phenylephrine response on blood pressure is measured to assess the uro-selectivity of the compound in the anesthetized dog.
Interesting compounds are those that express uro-selectivity with a ratio of >100 for the urethral pressure vs diastolic blood pressure comparisons (BP.US). […]
as §3, §4
3. At a time point 5 minutes post NS a phenylephrine bolus (10 μg/kg) is given into the cephalic vein and changes in blood pressure are recorded. At least two NS and phenylephrine injections are performed and evaluated for their consistency, the second consistent stimulation is picked for the baseline value response. […]

The subject of the next series is male Wistar rats. Briefly: Behavioural and autonomic observation after oral dosing in rats. The note with it: 10 mg/kg po. Type of series: in vivo. On the procedure:
The compound of Example 13 was administered at 10 mg/kg (po) to male Wistar rats.

Series [1] is described as follows: Crystal form stability and hygroscopicity. Type of series: physicochemical. On the procedure: Compounds of the present invention can exist in more than one crystalline form. For example, crystalline forms may vary from solvate to solvate. Compounds of the present invention encompass all possible crystalline forms. In particular, for example, 5-(2-{4-[5-(4-fluorophenyl)-4-(2,2,2-trifluoroethoxymethyl)-oxazol-2-yl}-ethyl)-2-methoxybenzenesulfonamide hydrochloride exists in four known crystal forms. Form I melts around 145° C. and converts to Form III which has a melting point around 200° C.

Structures can show the parent of a compound that is named as a salt.

Consider `COc1ccc(CCN2CCC(c3nc(COCC(F)(F)F)c(-c4ccc(F)cc4)o3)CC2)cc1S(N)(=O)=O` [Example 12, 2-Methoxy-5-(2-{4-[5-(4-fluoro-phenyl)-4-(2,2,2-trifluoro-ethoxymethyl)-oxazol-2-yl]-piperidin-1-yl}-ethyl)-benzenesulfonamide], for which the ED50 – broadly, the dose that gives a 50% effect, or the effect in half of the subjects – turned out to be 0.013 mg/kg with urethral pressure (Canis lupus familiaris, iv, dose (salt) producing 50% inhibition of nerve stimulation response on urethral pressure, cumulative i.v. infusion, anesthetized dog, read-out: UP ED50) and 7.15 mg/kg in the series with diastolic blood pressure. Also, the BP/UP with urethral pressure (ratio of the BP ED50 to the UP ED50, uro-selectivity) was 550.

For `COc1ccc(CCN2CCC(c3nc(COCC(F)(F)F)c(-c4ccc(F)cc4)o3)CC2)cc1S(N)(=O)=O` [Example 13, 5-(2-{4-[5-(4-fluorophenyl)-4-(2,2,2-trifluoroethoxymethyl)-oxazol-2-yl}-ethyl)-2-methoxybenzenesulfonamide hydrochloride], in the series on male Wistar rats (24 hours), the “animals' appearance by 24 hours after dosing” value was “all animals appeared normal by 24 hours after dosing”. Also, in the series with male Wistar rats (between 1 and 4 hours after dosing), the ptosis entry is “Slight to moderate ptosis was observed”. In series [1] (below 70% relative humidity), the hygroscopicity entry is given as “non-hydgroscopic”; the “solid state and chemical stability” value was “good solid state and chemical stability”. Also, in series [1] (greater than 70% relative humidity), the “conversion of crystal form” value is reported as “converts to form IV”.

`COc1ccc(CCN2CCC(c3nc(COCC(F)(F)F)c(-c4ccc(F)cc4)o3)CC2)cc1S(N)(=O)=O` [Form I, 5-(2-{4-[5-(4-fluorophenyl)-4-(2,2,2-trifluoroethoxymethyl)-oxazol-2-yl}-ethyl)-2-methoxybenzenesulfonamide hydrochloride]: the “conversion of crystal form” value in series [1] (room temperature, aqueous media) is reported as “convert to a hydrated form (Form IV)”.

For the compound `COc1ccc(CCN2CCC(c3nc(COCC(F)(F)F)c(-c4ccc(F)cc4)o3)CC2)cc1S(N)(=O)=O` [Form IV, 5-(2-{4-[5-(4-fluorophenyl)-4-(2,2,2-trifluoroethoxymethyl)-oxazol-2-yl}-ethyl)-2-methoxybenzenesulfonamide hydrochloride], the “conversion of crystal form” value in series [1] (upon separation from the aqueous media) is recorded as “readily converts to an anhydrous form (Form II)”.
